Data taken from US20100291034A1, “COMBINATIONS OF HCV PROTEASE INHIBITOR(S) AND CYP3A4 INHIBITOR(S), AND METHODS OF TREATMENT RELATED THERETO” (Schering Corporation, priority 2006, published 2010).
Read-outs that look alike come from different tables or passages of the source.

Experiments:
[1] = system: human liver cytosol; test: Incubation of compound Formula Ia or Formula XXVII in human liver cytosol with AKR inhibitor or CYP3A4 inhibitor (formation of M+2 metabolite, LC-MS); type: in vitro ADME
Experimental: Prior to the addition of drug, the incubation mixture was preincubated for 2 min at 37° C. […] Human liver microsomes and cytosol without NADPH served as negative controls. Parallel incubations with the compound of Formula Ia were used as positive controls. […] All incubations were performed as described previously for human liver cytosols. […] Parallel incubations with the compound of Formula Ia were used as positive controls.

[2] = Clinical study: effect of ketoconazole or ibuprofen on the pharmacokinetics of Formula Ia; type: in vivo, human; details: for AUC / half-life: human, plasma, po, 400 mg
Experimental: The study was conducted in an open-label, randomized, 3-period, 2-sequence crossover manner (FIG. 2). During Period 1, all 12 human subjects were administered a single 400 mg dose of Formula Ia. During Periods 2 and 3, human subjects received multiple doses of interacting drug, either ketoconazole (400 mg BID) or ibuprofen (600 mg TID) in a randomized sequence. The interacting drug was administered beginning on Day 1 (3 days prior to Formula Ia administration) and continued through Day 6. A single dose of Formula Ia was administered on Day 4 (2 hours after administration of the AM dose of interacting drug). Plasma samples for pharmacokinetic and metabolite analyses of Formula Ia was collected at predose (0 hour), 0.5, 1, 1.5, 2, 2.5, 3, 4, 5, 6, 7, 8, 9, 10, 12, 24, 36, 48, and 72 hour postdose for each period. (The 48 and 72 hour postdose samples for Period 1 was collected in an outpatient setting). In Periods 2 and 3, additional blood samples were collected immediately prior to dosing of the Formula Ia on Day 4 and two hours post ketoconazole/ibuprofen administration on Day 5 for determination of ketoconazole or ibuprofen concentration. • Treatment A: Formula Ia (4×100 mg capsules); single dose, P.O following an overnight fast, administered on Day 1 or Period 1. • Treatment B: Ketoconazole 400 mg; PO, administered BID from Day 1 to Day 6, Formula Ia (4×100 mg capsules); single dose, PO following an overnight fast, administered on Day 4 (2 hours after the AM ketoconazole dose). • Treatment C: Ibuprofen 600 mg; PO, TID from Day 1 to Day 6 Formula Ia (4×100 mg capsules); single dose, PO following an overnight fast, administered on Day 4 (2 hours after the AM ibuprofen dose).
Human subjects received a single dose of Formula Ia on Day 1 of Period 1. In Period 2 and Period 3, human subjects were treated for 6 days with either ketoconazole or ibuprofen and received a single dose of Formula Ia on Day 4 of each period. There were at least 7 days between administration of Formula Ia in Period 1 and Period 2 and at least 14 days between administration of Formula Ia in Period 2 and 3.
The proportion of human subjects with plasma concentrations above the in vitro IC50 and IC90 for the HCV replicon at each time point was determined. This plasma concentration data was used to estimate the following primary pharmacokinetic variables for the determination of bioavailability comparisons: • AUC(tf)—Area under the plasma concentration-time curve from Time 0 […]. • Cmax—Maximum observed plasma concentration. • Tmax—Time to maximum observed plasma concentration. • t½—Terminal phase half-life.

[3] = Exposure multiple of Formula Ia, most sensitive animal species versus humans; type: in vivo; details: most sensitive animal species compared with mean exposure in humans receiving 400 mg TID
[4] = Exposure to Formula Ia when coadministered with food; type: in vivo
[5] = Clinical study: pharmacokinetics of Formula Ia administered in combination with ritonavir; type: in vivo, human
Experimental: This study was an open-label, randomized, 2-period fixed-sequence, multiple-dose study (FIG. 4). The safety of coadministration of Formula Ia and ritonavir, as well as the quantitation of the ability of ritonavir to enhance Formula Ia PK parameters (specifically trough concentration values) in healthy human subjects was explored. A dose of 400 mg TID of Formula Ia coadministered with ritonavir was selected, as we have substantial safety and PK data available with Formula Ia administered alone at 400 mg TID and 800 TID for comparison. The dose selected of ritonavir was at a level to inhibit CYP3A4 and below the therapeutic dose for HIV. […] In this study, the effect of ritonavir on Formula Ia was examined as a low dose (100 mg) at two different dosing frequencies (i.e., once in the morning (QAM) and twice a day (BID)), which are commonly administered in HIV therapy. Based upon the findings of these regimens, subsequent regimens may be explored, with modification of the Formula Ia and/or ritonavir component(s). Human subjects received Formula Ia alone for 5 days in order to achieve steady-state. Human subjects were then randomized to receive one of two treatment regimens in which ritonavir was coadministered with Formula Ia (Formula Ia for 10 days, ritonavir administered for 12 days). Steady-state PK samples for Formula Ia were collected on Day 5 (Formula Ia alone), and on Day 15 (Formula Ia+ritonavir) and the PK parameters (primarily trough concentrations values) compared. […] In Period 1, all 16 human subjects received Treatment A and in Period 2 human subjects were randomized to either Treatment B or Treatment C (8 human subjects/treatment). […] Treatment A: Formula Ia 400 mg TID, every 8 hours) (Q8° following a meal or snack. Period 2 (Days 6 to 17): Treatment B: Formula Ia 400 mg TID (Q8°, Days 6 to 15), ritonavir 100 mg QAM (Days 6 to 17), following a meal or snack; Treatment C: Formula Ia 400 mg BID, every 12 hours ([…]°), (Days 6 to 15), ritonavir 100 mg BID, […]° (Days 6 to 17), following a meal or snack. Formula Ia (2×200 mg 3% SLS containing capsules), PO, TID, following a meal or snack. Formula Ia (2×200 mg 3% SLS containing capsules), PO, BID, following a meal or snack. Ritonavir (1×100 mg capsules), PO, QAM, following a meal or snack. Ritonavir (1×100 mg capsules), PO, BID, following a meal or snack. The trough levels after multiple-dosing of Formula Ia alone (Day 5) and after multiple-dosing of Formula Ia in combination with ritonavir (Day 15) were compared. […] AUC, Cmax, Cmin, and Tmax. […] The primary pharmacokinetic parameter is Cmin. The secondary parameters are Cmax and AUC. The log transformed pharmacokinetic parameters including Cmin, AUC, and Cmax were statistically analyzed using ANOVA model extracting effects due to treatment and human subject. […] The corresponding 90% confidence intervals were also provided. There is no intention to compare Treatments B and C to each other. • Treatment A: Formula Ia 400 mg TID (Q8°) following a meal or snack. Period 2 (Days 6 to 17). • Treatment B: Formula Ia 400 mg TID (Q8°, Days 6 to 15), ritonavir 100 mg QAM (Days 6 to 17) following a meal or snack. • Treatment C: Formula Ia 400 mg BID ([…]° Days 6 to 15), ritonavir 100 mg BID ([…]°, Days 6 to 17) following a meal or snack.

[6] = system: HCV; test: EC90 of Formula XIVa used as plasma concentration threshold; details: Hepatitis C virus
[7] = in vivo; cited from earlier work
[8] = system: HCV; details: HCV positive patients, Nelson et al. 2003; cited from earlier work
[9] = Mean (% CV), plasma Formula Ia, single 400 mg dose PO, human subjects
[10] = co-administering ketoconazole with Formula Ia

Molecule: CC(C)(C)NC(=O)N[C@H](C(=O)N1CC2C([C@H]1C(=O)NC(CC1CCC1)C(=O)C(N)=O)C2(C)C)C(C)(C)C (some centres unmarked) [Formula Ia]
- 1ST PARENT PEAK AREA ([1]; HL Cytosol w/ NADPH + 2 uM Ritonavir): 3.81E+07
- 1ST PARENT PEAK AREA ([1]; HL Cytosol w/ NADPH + 50 uM Mefenamic acid): 6.19E+07
- 1ST PARENT PEAK AREA ([1]; HL Cytosol w/ NADPH + 100 uM Flufenamic acid): 6.33E+07
- 1ST PARENT PEAK AREA ([1]; HL Cytosol w/ NADPH + 100 uM Phenolphthalein): 6.23E+07
- 1ST PARENT PEAK AREA ([1]; HL Cytosol w/ NADPH + 200 uM Diflunisal): 6.10E+07
- 1ST PARENT PEAK AREA ([1]; HL Cytosol w/ NADPH Vehicle Control): 3.95E+07
- 1ST PARENT PEAK AREA ([1]; HL Cytosol w/o NADPH, 20 μM substrate, 60 min, 37° C.): 7.41E+07
- Cmax ([2]; Mean (% CV), plasma Formula Ia, single 400 mg dose PO, fasted human subjects, alone or with ketoconazole 400 mg BID or ibuprofen 600 mg TID): 571 ng/mL
- AUC(0-t) [2, 9]: 2000 ng·h/mL
- C8 [2, 9]: 48.0 (38)
- MRT [2, 9]: 6.57 h
- increase in Cmax (average) [2, 10]: 40%
- increase of overall exposure (AUC) [2, 10]: more than 2 fold
- increase of trough concentration (C8) [2, 10]: approximately 3 fold
- increase in the bioavailability of Formula Ia ([2]; coadministration of ketoconazole compared to monotherapy of Formula Ia alone): 2 fold
- mean residence time (MRT) and effective half-life ([2]; effect of ketoconazole): increased
- AUC ([2]; Mean (% CV), plasma Formula Ia, single 400 mg dose PO, human subjects, read-out: AUC(l)): 2070 ng·h/mL
- AUC ([2]; Mean (% CV), plasma Formula Ia, single 400 mg dose PO, human subjects, read-out: AUCall): 2040 ng·h/mL
- half-life ([2]; Mean (% CV), plasma Formula Ia, single 400 mg dose PO, human subjects, read-out: t½ (converted)): 9.11 h
- half-life ([2]; Mean (% CV), plasma Formula Ia, single 400 mg dose PO, human subjects, read-out: t½ eff (converted)): 3.3 h
- Tmax ([2]; median, plasma Formula Ia, single 400 mg dose PO, human subjects): 1.75 h
- exposure multiple [3]: ≥ 4 fold
- exposure [4]: increases
- C8 ([5]; Mean PK (% CV), Formula Ia TID (400 mg) alone, Day 5): 104 (31)
- effect on the PK parameters examined ([5]; coadministration with 100 mg ritonavir QD or BID compared to monotherapy of Formula Ia alone): no effect
- Tmax ([5]; human, plasma, oral, Mean PK (% CV), Formula Ia TID (400 mg) alone, Day 5): 2.13 h
- AUC ([5]; human, plasma, oral, Mean PK (% CV), Formula Ia TID (400 mg) alone, Day 5, read-out: AUC8): 4120 ng·h/mL
- Cmax ([5]; plasma, oral, Mean PK (% CV), Formula Ia TID (400 mg) alone, Day 5, with food, healthy human subjects): 1360 ng/mL

Molecule: CCCCC(NC(=O)[C@@H]1[C@@H]2[C@H](CN1C(=O)[C@@H](NC(=O)NC1(CS(=O)(=O)C(C)(C)C)CCCCC1)C(C)(C)C)C2(C)C)C(=O)C(=O)NC1CC1 (some centres unmarked) [Formula XIVa]
- EC90 [6]: 0.03 µg/mL

Molecule: CC(C)c1nc(CN(C)C(=O)N[C@H](C(=O)N[C@@H](Cc2ccccc2)C[C@H](O)[C@H](Cc2ccccc2)NC(=O)OCc2cncs2)C(C)C)cs1 [ritonavir]
- half life [7]: 3 to 5 h

B1: recombinant human IL-10: recombinant human IL-10 given to HCV positive patients in a Phase II clinical study (protein)
chain: SPGQGTQSENSCTHFPGNLPNMLRDLRDAFSRVKTFFQMKDQLDNLLLKESLLEDFKGYLGCQALSEMIQFYLEEVMPQAENQDPDIKAHVNSLGENLKTLRLRLRRCHRFLPCENKSKAVEQVKNAFNKLQEKGIYKAMSEFDIFINYIEAYMTMKIRN
- hepatic fibrosis [8]: decrease
- viral load [8]: increase
